Measured values: US12448388B2, “PRMT5 inhibitors and uses thereof” (Gilead Sciences, Inc., priority 2023, dated 2025)
Where two headings read alike, the source gives them in different places.

Tested on: HCT116 MTAP-deleted cell lines
Test: Cell viability assay (CellTiter-Glo, 7 days), HCT116 MTAP-deleted
Type: cell-based
Conditions: Homo sapiens, HCT-116, HCT116 MTAP-deleted, class symbols, read-out: CC50
Procedure, shortened: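 Luminescent ATP readout (CellTiter-Glo) after 7 days of continuous compound exposure gives the CC50 value. Cells were plated onto pre-dispensed DMSO dilution series of the PRMT5 inhibitors and kept at 37 °C in 5% CO2.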

SMILES | CC50 (cell viability) | CC50 (cell viability assay)
CO[C@H]1COCC[C@H]1N(Cc1ccc(C(F)(F)F)cc1F)C(=O)c1cc2c(cc1F)nc(N)c1cncn12 [Ff-274, 4-amino-7-fluoro-N-(2-fluoro-4-(trifluoromethyl)benzyl)-N-((3R,4R)-3-methoxytetrahydro-2H-pyran-4-yl)imidazo[1,5-a]quinoxaline-8-carboxamide] | < 100 nM | 
Nc1nc2ccc(C(=O)N3CCC[C@@H]4Oc5cc(OC(F)(F)F)c(F)cc5[C@@H]43)cc2n2cncc12 (racemic) [Ff-339, Rac-(4-aminoimidazo[1,5-a]quinoxalin-8-yl)((4aS,9bS)-8-fluoro-7-(trifluoromethoxy)-3,4,4a,9b-tetrahydrobenzofuro[3,2-b]pyridin-1(2H)-yl)methanone] | < 100 nM | 
Cc1ncc2c(N)nc3cnc(C(=O)N4CCC[C@@H]5Oc6c(ccc(OC(F)(F)F)c6F)[C@@H]54)cc3n12 [Ff-347, (4-amino-1-methylimidazo[1,5-a]pyrido[3,4-e]pyrazin-8-yl)((4aS,9bS)-6-fluoro-7-(trifluoromethoxy)-3,4,4a,9b-tetrahydrobenzofuro[3,2-b]pyridin-1(2H)-yl)methanone] | < 100 nM | 
Cc1ncc2c(N)nc3cnc(C(=O)N4CCC5(CC5)[C@@H]5Oc6cc(C(F)(F)F)ccc6[C@@H]54)cc3n12 [Ff-679, (4-amino-1-methylimidazo[1,5-a]pyrido[3,4-e]pyrazin-8-yl)((4aS,9bS)-7-(trifluoromethyl)-2,3,4a,9b-tetrahydro-1H-spiro[benzofuro[3,2-b]pyridine-4,1′-cyclopropan]-1-yl)methanone] |  | < 100 nM
CN(C(=O)c1cc2c(cc1F)nc(N)c1cncn12)[C@@H]1COc2cc(OC(F)F)cc(F)c21 [Ff-585] |  | < 100 nM
CN(C(=O)c1cc2c(cc1F)nc(N)c1cncn12)C1COc2cc(Br)c(Cl)cc21 (stereo not shown) [Ff-609, 4-amino-N-(6-bromo-5-chloro-2,3-dihydrobenzofuran-3-yl)-7-fluoro-N-methylimidazo[1,5-a]quinoxaline-8-carboxamide] |  | < 100 nM
Cc1ncn2c1c(N)nc1cnc(C(=O)N3[C@H](C)CC[C@@H]4Oc5cc(C(F)(F)F)ccc5[C@@H]43)cc12 (single isomer, unassigned) [Ff-611] |  | < 100 nM
Nc1nc2cc(F)c(C(=O)N(Cc3ccc(-c4ccnn4C(F)(F)F)cc3F)C34CC(C3)C4)cc2n2cncc12 [Ff-218, 4-amino-N-(bicyclo[1.1.1]pentan-1-yl)-7-fluoro-N-(2-fluoro-4-(1-(trifluoromethyl)-1H-pyrazol-5-yl)benzyl)imidazo[1,5-a]quinoxaline-8-carboxamide] | < 100 nM | 
CN(C(=O)c1cc2c(cc1F)nc(N)c1cncn12)[C@@H]1COc2cc(Cl)c(Cl)cc21 (single isomer, unassigned) [Ff-605] |  | < 100 nM
[2H]C([2H])([2H])N(C(=O)c1cc2c(cc1F)nc(N)c1cncn12)[C@@H]1COc2cc(C(F)(F)F)ccc21 [Ff-47, 4-amino-7-fluoro-N-(methyl-d3)-N-(6-(trifluoromethyl)-2,3-dihydrobenzofuran-3-yl)imidazo[1,5-a]quinoxaline-8-carboxamide] | < 100 nM | 
Nc1nc2cc(Cl)c(C(=O)N3CCO[C@@H]4Cc5cc(C(F)(F)F)ccc5[C@@H]43)cc2n2cncc12 (racemic) [Ff-35, Racemic (4-amino-7-chloroimidazo[1,5-a]quinoxalin-8-yl)((4aS,9aR)-7-(trifluoromethyl)-2,3,9,9a-tetrahydroindeno[2,1-b][1,4]oxazin-4(4aH)-yl)methanone] | < 100 nM | 
CN(C(=O)c1cc2c(cc1F)nc(N)c1cncn12)[C@@H]1COc2cc([C@@H]3C[C@H]3C#N)ccc21 (single isomer, unassigned) [Ff-480] |  | < 100 nM
CN(C(=O)c1cc2c(cc1F)nc(N)c1cncn12)[C@H]1COCc2nc(C(F)(F)F)ccc21 [Ff-282, (R)-4-amino-7-fluoro-N-methyl-N-(2-(trifluoromethyl)-5,8-dihydro-6H-pyrano[3,4-b]pyridin-5-yl)imidazo[1,5-a]quinoxaline-8-carboxamide] | 100 to 1000 nM | 
Nc1nc2cc(F)c(C(=O)N(Cc3ccc(C(F)(F)F)cc3F)c3cnsc3)cc2n2cncc12 [Ff-227, 4-amino-7-fluoro-N-(2-fluoro-4-(trifluoromethyl)benzyl)-N-(isothiazol-4-yl)imidazo[1,5-a]quinoxaline-8-carboxamide] | < 100 nM | 
CN(C(=O)c1cc2c(cc1F)nc(N)c1cncn12)C1COCc2cc(C(F)(F)F)ccc21 (stereo not shown) [Ff-39, 4-amino-7-fluoro-N-methyl-N-(7-(trifluoromethyl)isochroman-4-yl)imidazo[1,5-a]quinoxaline-8-carboxamide] | < 100 nM | 
CN(C(=O)c1cc2c(cn1)nc(N)c1cncn12)C1CCc2cc(C(F)(F)F)ccc21 (stereo not shown) [Ff-436, 7-amino-N-methyl-N-[5-(trifluoromethyl)indan-1-yl]-2,4,8,11-tetrazatricyclo[7.4.0.02,6]trideca-1(13),3,5,7,9,11-hexaene-12-carboxamide] |  | < 100 nM
Nc1nc2cnc(C(=O)N3CC4(CC4)C[C@@H]4Oc5cc(OC(F)(F)F)ccc5[C@@H]43)cc2n2cncc12 [Fg-61, (4-aminoimidazo[1,5-a]pyrido[3,4-e]pyrazin-8-yl)((4aS,9bS)-7-(trifluoromethoxy)-4a,9b-dihydro-2H-spiro[benzofuro[3,2-b]pyridine-3,1′-cyclopropan]-1(4H)-yl)methanone] |  | < 100 nM
C[C@@H]1C[C@@H]2Oc3cc(C(F)(F)F)ccc3[C@@H]2N(C(=O)c2cc3c(cc2F)nc(N)c2cncn23)C1 [Ff-251, (4-amino-7-fluoroimidazo[1,5-a]quinoxalin-8-yl)((3R,4aS,9bS)-3-methyl-7-(trifluoromethyl)-3,4,4a,9b-tetrahydrobenzofuro[3,2-b]pyridin-1(2H)-yl)methanone] | < 100 nM | 
Nc1nc2cc(F)c(C(=O)N3CCC[C@@H]4OCc5cc(-c6cnn(C(F)(F)F)c6)ccc5[C@@H]43)cc2n2cncc12 (racemic) [Ff-295, Rac-(4-amino-7-fluoroimidazo[1,5-a]quinoxalin-8-yl)((4aS,10bS)-8-(1-(trifluoromethyl)-1H-pyrazol-4-yl)-2,3,4,4a,6,10b-hexahydro-1H-isochromeno[4,3-b]pyridin-1-yl)methanone] | < 100 nM | 
CN(C(=O)c1cc2c(cc1Cl)nc(N)c1cncn12)[C@@H]1COCc2nc(C(F)(F)F)ccc21 [Ff-308, (S)-4-amino-7-chloro-N-methyl-N-(2-(trifluoromethyl)-5,8-dihydro-6H-pyrano[3,4-b]pyridin-5-yl)imidazo[1,5-a]quinoxaline-8-carboxamide] | < 100 nM | 
C[C@H]1CN(C(=O)c2cc3c(cc2F)nc(N)c2cncn23)[C@H]2c3ccc(C(F)(F)F)c(F)c3C[C@H]2O1 [Ff-690, (4-amino-7-fluoroimidazo[1,5-a]quinoxalin-8-yl)((2S,4aS,9aR)-8-fluoro-2-methyl-7-(trifluoromethyl)-2,3,9,9a-tetrahydroindeno[2,1-b][1,4]oxazin-4(4aH)-yl)methanone] |  | < 100 nM
C[C@@H](c1ccc(C(F)(F)F)cc1F)N(C)C(=O)c1cc2c(cc1F)nc(N)c1cncn12 [Ff-533, (S)-4-amino-7-fluoro-N-(1-(2-fluoro-4-(trifluoromethyl)phenyl)ethyl)-N-methylimidazo[1,5-a]quinoxaline-8-carboxamide] |  | 100 to 1000 nM
